# According to patent US20070092587A1, “Extract from plant of japanese parsley family and process for producing the same” (priority 2004, published 2007):
# Assays:
# [1] = tested on: Preadipocyte cell line 3T3-L1; assay: Induction of differentiation into adipocytes (amount of triglyceride biosynthesis); type: cell-based; details: for induction of biosynthesis of triglyceride (inducing action on differentiation into mature adipocytes): isolated compounds at final 1-30 μM, seven days after addition
# Protocol: The induction of differentiation into adipocytes was carried out by partially modifying the method of Rubin C. S. et al. (J. Biol. Chem., Vol. 253, No. 20, p7570-7578 (1978)). Preadipocyte cell line 3T3-L1 (ATCC CCL-92.1) was suspended in a 10% fetal bovine serum (manufactured by GIBCO)-containing Dulbecco's modified Eagle's medium (manufactured by Sigma, D6046) containing 200 μM ascorbic acid (hereinafter referred to as A-D-MEM medium) so as to have a density of 4×10^3 cells/mL, and the suspension was put in each well of a 12-well microtiter plate in an amount of 2 mL per well. The cells were cultured at 37° C. for 7 days in the presence of 5% carbon dioxide gas. The medium was exchanged with the same medium on the second day and the fourth day. On the seventh day, the medium was exchanged with A-D-MEM medium containing 0.25 μM dexamethasone. […] Here, there were set a group with addition of 4 μL of a 5 mg/mL aqueous solution of insulin (manufactured by TAKARA BIO INC.) as a positive control, and a group with addition of dimethyl sulfoxide as a negative control. After 45 hours, the medium was exchanged with A-D-MEM medium. […] The cells were cultured for additional 7 days.
# The amount of triglyceride in the adipocytes was determined as an index for inducing differentiation into matured adipocytes, and as evaluation of insulin-mimetic action. After the termination of the culture, the medium was removed, and the cells were washed twice with a phosphate buffered saline. One milliliter of a solvent of hexane: isopropanol=3:2 was added thereto. The mixture was allowed to stand at room temperature for 30 minutes, and thereafter the supernatant was collected. The procedures were repeated again, and 2 mL of the resulting supernatant was concentrated to dryness. The precipitate was dissolved in 100 μL of isopropanol, and thereafter the amount of triglyceride contained in 10 μL of the resulting solution was determined with Triglyceride E-Test (manufactured by Wako Pure Chemical Industries, Ltd., code 432-40201). All of the determinations were carried out twice.
# Specifically, as a sample, there was set a group with addition of the dimethyl sulfoxide solution of the extract from the root portion of Angelica keiskei koidz. with the 40% aqueous ethanol solution at a final concentration of 0.1% or 0.033%, the dimethyl sulfoxide solution of the extract from the root portion of Angelica keiskei koidz. with the 50% aqueous ethanol solution at a final concentration of 0.033% or 0.011%, the dimethyl sulfoxide solution of the extract from the root portion of Angelica keiskei koidz. with the 70% aqueous ethanol solution at a final concentration of 0.022%, the dimethyl sulfoxide solution of the extract from the root portion of Angelica keiskei koidz. with the 60% or 80% aqueous ethanol solution or the dimethyl sulfoxide solution of the extract with the 100% ethanol so as to have a final concentration of 0.067% or 0.022%, respectively, to each well. Here, there were set a group with addition of 4 μL of a 5 mg/mL aqueous solution of insulin (manufactured by TAKARA BIO INC.) as a positive control, and a group with addition of dimethyl sulfoxide as a negative control. Thereafter, the medium and the sample were exchanged in the same manner as in the method described in Example 5, and after seven days from the addition of the sample, the amount of triglyceride in the adipocytes was determined.
# Here, there were set a group with addition of 4 μL of a 5 mg/mL aqueous solution of insulin (manufactured by TAKARA BIO INC.) as a positive control, and a group with addition of dimethyl sulfoxide as a negative control. Thereafter, the medium and the sample were exchanged in the same manner as in the method described in Example 5, and after seven days from the addition of the sample, the amount of triglyceride in the adipocytes was determined.
# [2] = tested on: mature adipocytes (3T3-L1 cells); assay: Enhancing action on glucose uptake (2-deoxyglucose uptake) into mature adipocytes; type: cell-based; details: insulin 1 μg/mL positive control, compared to negative control
# Protocol: The induction of differentiation into mature adipocytes was carried out by partially modifying the method of Rubin C. S. et al. 3T3-L1 cells were suspended in a 10% fetal bovine serum-containing Dulbecco's modified Eagle's medium containing 200 μM ascorbic acid so as to have a density of 4×10^3 cells/mL, and the suspension was put in each well of a 12-well microtiter plate in an amount of 2 mL per well. The cells were cultured at 37° C. for 7 days in the presence of 5% carbon dioxide gas. On the seventh day, the medium was exchanged with 2 mL of a 10% fetal bovine serum-containing Dulbecco's modified Eagle's medium containing 200 μM ascorbic acid, 0.25 μM dexamethasone, 10 μg/mL insulin and 0.5 mM 3-isobutyl-1-methylxanthine (manufactured by Nacalai Tesque, Inc., 19624-44). After 45 hours, the medium was exchanged with 2 mL of a 10% fetal bovine serum-containing Dulbecco's modified Eagle's medium containing 200 μM ascorbic acid and 5 μg/mL insulin. The medium was exchanged on after 2 days and 4 days, and the cells were cultured for 7 days, to give mature adipocytes.
# As the evaluation of enhancing action on glucose uptake, and also as the evaluation of insulin-mimetic action, the amount of 2-deoxyglucose uptake into mature adipocytes stimulated with the sample ([…]) in the adipocytes was determined.
# After the termination of the culture, the medium was removed, and the cells were washed twice with a 0.1% (w/v) bovine serum albumin (manufactured by Sigma, A8022)-containing Dulbecco's modified Eagle's medium. Thereafter, 1 mL of the […] ethanol solution at a final concentration of 0.1%, 0.067%, or 0.022%, […] solution at a final concentration of 0.2%, 0.067%, or 0.022%, […] ethanol solution or the dimethyl sulfoxide solution of the extract from the root portion of Angelica keiskei koidz. with the 100% ethanol so as to have a final concentration of 0.067% or 0.022%, each extract being prepared in Example 4, was put to each well. The cells were cultured overnight at 37° C. in the presence of 5% carbon dioxide gas. Here, a group without addition of the sample was set as a negative control. After the overnight culture, the cells were washed twice with a HEPES buffered saline (140 mM NaCl, 5 mM KCl, 2.5 mM MgSO4, 1 mM CaCl2, 20 mM HEPES-Na (pH 7.4)), and 0.9 mL of the […] ethanol solution at a final concentration of 0.1%, 0.067%, or 0.022%, […] solution at a final concentration of 0.2%, 0.067%, or 0.022%, […] ethanol solution or the dimethyl sulfoxide solution of the extract from the root portion of Angelica keiskei koidz. with the 100% ethanol so as to have a final concentration of 0.067% or 0.022%, was added thereto. The cells were cultured at 37° C. for 75 minutes. At the point when 45 minutes passed, there was set in a well without addition of the sample a group with addition of insulin so as to have a final concentration of 1 μg/mL as a positive control. Thereafter, 100 μL of a HEPES buffered saline containing 0.5 μCi/mL 2-deoxy-[1,2-^3H(N)]-glucose (manufactured by PerkinElmer Life Sciences Inc., NET549A) and 1 mM 2-deoxyglucose (manufactured by Nacalai Tesque, Inc., 10722-11) was added thereto, and the cells were further cultured at 37° C. for 10 minutes. […] The radioactivity was determined with a liquid scintillation counter LS6500 (manufactured by Beckmann) using 25 μl of the supernatant with Ultima Gold (manufactured by PerkinElmer Life Sciences Inc., 6013329) as a scintillation cocktail. […]
# [3] = target: T1, human muscle cell-derived aldose reductase (Homo sapiens, UniProt P15121); assay: Inhibitory action for aldose reductase (change in NADPH absorbance at 340 nm, methylglyoxal substrate); type: biochemical
# T1 construct: purchased Wako Pure Chemical Industries, Ltd
# Protocol: Inhibitory action for aldose reductase of the extract from the root portion of Angelica keiskei koidz. was determined in accordance with the following method. As a sample, 20 μL of a 100 mM methylglyoxal solution was added to 10 μL of each of the kinds of ethanol extracts from the root portion of Angelica keiskei koidz. prepared in Example 4, and 10 μL of the water extract from the root portion of Angelica keiskei koidz. prepared in Preparation Example 1 (a solution prepared by dissolving the extract in a 50% aqueous dimethyl sulfoxide solution), 100 μL of 0.2 M phosphate buffer (pH 6.2), 20 μL of 1 mM NADPH (phosphate buffer), and 10 μL of a human muscle cell-derived aldose reductase solution (0.1 U/mL, manufactured by Wako Pure Chemical Industries, Ltd., phosphate buffer). For a period of 180 seconds after 30 seconds passed, the change in absorbance of NADPH at 340 nm was determined. As a negative control, a 50% aqueous dimethyl sulfoxide solution was used in place of the sample. Also, the absorbance was determined using distilled water as a blank solution for each sample in place of the methylglyoxal solution. The determination values were expressed as an average of two experimental values. The inhibitory ratio (%) for aldose reductase was calculated in accordance with the following formula: Inhibitory Ratio (%)=[1−(ΔAs−ΔAsb)/(ΔAc−ΔAcb)]×100, wherein ΔAs and ΔAc show a change in the absorbance of each of the sample solution and the negative control solution per minute; and ΔAsb and ΔAcb show a change in the absorbance of the blank solutions for the sample solution and the negative control solution per minute.
# The inhibitory activity for aldose reductase of the extract from the leaf and stem portions of Angelica keiskei koidz. prepared in Example 3 was determined in the same manner as in Example 8.
# aldose reductase = aldose reductase (Homo sapiens, UniProt P15121); details: clarified in WO 2004/031165; cited from earlier work
# [4] = isolated compounds at final 3-30 μM
Compound,induction of biosynthesis of triglyceride (inducing action on differentiation into mature adipocytes) [1],"enhancement of 2-deoxy-[1,2-3H(N)]-glucose uptake [2, 4]",Inhibitory Ratio (%) of Aldose Reductase ([3]; 10 μM),Inhibitory Ratio (%) of Aldose Reductase ([3]; 20 μM),Inhibitory Ratio (%) of Aldose Reductase ([3]; 40 μM),Inhibitory Ratio (%) of Aldose Reductase ([3]; 2.5 μM),Inhibitory Ratio (%) of Aldose Reductase ([3]; 5 μM),inhibitory actions for aldose reductase (aldose reductase),"induction of triglyceride biosynthesis (activity of inducing differentiation into adipocytes) ([1]; leaf and stem extracts (Example 3) at final 0.011-0.2%, insulin positive control, compared to dimethyl sulfoxide group)","enhancement of 2-deoxy-[1,2-3H(N)]-glucose uptake ([2]; root extracts (Example 4) at final 0.022-0.2%)"
COc1ccc(C(=O)/C=C/c2ccc(O)cc2)c(O)c1CC=C(C)C [4-hydroxyderricin],induction of biosynthesis of triglyceride was found,"enhancement of 2-deoxy-[1,2-^3H(N)]-glucose uptake was found",,,,,,,,
"CC(C)=CCc1c(O)ccc(C(=O)/C=C/c2ccc(O)cc2)c1O [Isobavachalcone, isobavachalcone]",induction of biosynthesis of triglyceride was found,"enhancement of 2-deoxy-[1,2-^3H(N)]-glucose uptake was found",30.2%,47.4%,60.1%,,,,,
"COc1ccc2c(c1CC=C(C)C)O[C@H](c1ccc(O)cc1)CC2=O [Munduleaflavanone A, munduleaflavanone A]",induction of biosynthesis of triglyceride was found,,68.5%,73.8%,,38.5%,54.6%,,,
"CC(C)=CCC/C(C)=C/Cc1c(O)ccc2c1O[C@H](c1ccc(O)cc1)CC2=O [Prostratol F, prostratol F]",induction of biosynthesis of triglyceride was found,,57.1%,61.4%,,27.4%,46.3%,,,
CC12CCC(O)C(C)(C)C1Cc1c(O)ccc(C(=O)/C=C/c3ccc(O)cc3)c1O2 (stereo not shown) [TB1],induction of biosynthesis of triglyceride was found,,,,,,,inhibitory actions for aldose reductase are found,,
CC(C)=CCCC1(C)Oc2c(C(=O)/C=C/c3ccc(O)cc3)ccc(O)c2CC1O (stereo not shown) [TB2],induction of biosynthesis of triglyceride was found,,,,,,,inhibitory actions for aldose reductase are found,,
bavachromanol,,,70.5%,80.1%,,42.1%,58.2%,,,
"insulin: insulin (manufactured by TAKARA BIO INC.), positive control [reference compound]",,"enhancement of 2-deoxy-[1,2-^3H(N)]-glucose uptake was found",,,,,,,induction of triglyceride biosynthesis could be also confirmed,"enhancement of 2-deoxy-[1,2-^3H(N)]-glucose uptake was found"
xanthoangelol H,induction of biosynthesis of triglyceride was found,"enhancement of 2-deoxy-[1,2-^3H(N)]-glucose uptake was found",72.2%,80.8%,,40.4%,57.8%,,,
